For assay [1], the target named is T1, ΔF508-CFTR (Homo sapiens, UniProt P13569, DEL508-508).
T1 construct: host or cells: CFBE41o-, doxycycline-inducible
The experiment in a line: CFTR cell surface levels using HRP-tagged ΔF508-CFTR expressing CFBE cells, in the presence of a co-corrector. To be noted: HRP-tagged ΔF508-CFTR expressing CFBE cells, in the presence of 3 μM co-corrector; for EC50: read-out: EC50. The assay is classed as cell-based. An outline of the steps: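 Cells were seeded with 0.5 μg/mL doxycycline and held 68 h at 37 °C. Test compounds plus 3 μM co-corrector (final 0.1% DMSO) were then added for 20 h at 33 °C. Washed cells received HRP substrate, and luminescence was normalized between DMSO and 3 μM co-corrector controls.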

Assay [2] addresses T1, ΔF508-CFTR. The experiment in a line: CFTR cell surface levels using HRP-tagged ΔF508-CFTR expressing CFBE cells, intrinsic corrector capacity. The assay is classed as cell-based. The note with it: for EC50: read-out: EC50. The method in brief: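 Here the cells express ΔF508-CFTR with horseradish peroxidase inserted in extracellular loop 4, so only rescued channel at the surface gives luminescent signal. Compounds act on their own, 20 h at the reduced temperature of 33 °C; values are percent activity relative to DMSO and a 3 μM corrector.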

Setting [3] is: HRP-tagged ΔF508-CFTR CFBE41o- cells, compounds alone (intrinsic corrector capacity), 20 hours at 33° C., positive control 3 μM corrector.
[4] abbreviates: HRP-tagged ΔF508-CFTR CFBE41o- cells, compounds alone (intrinsic corrector capacity), 20 hours at 33° C.
Setting [5] is: HRP-tagged ΔF508-CFTR expressing CFBE cells, intrinsic corrector capacity (no co-corrector), 33° C., 20 hours.

T1 sequence (P13569 with tags, fused parts or gaps DEL508-508): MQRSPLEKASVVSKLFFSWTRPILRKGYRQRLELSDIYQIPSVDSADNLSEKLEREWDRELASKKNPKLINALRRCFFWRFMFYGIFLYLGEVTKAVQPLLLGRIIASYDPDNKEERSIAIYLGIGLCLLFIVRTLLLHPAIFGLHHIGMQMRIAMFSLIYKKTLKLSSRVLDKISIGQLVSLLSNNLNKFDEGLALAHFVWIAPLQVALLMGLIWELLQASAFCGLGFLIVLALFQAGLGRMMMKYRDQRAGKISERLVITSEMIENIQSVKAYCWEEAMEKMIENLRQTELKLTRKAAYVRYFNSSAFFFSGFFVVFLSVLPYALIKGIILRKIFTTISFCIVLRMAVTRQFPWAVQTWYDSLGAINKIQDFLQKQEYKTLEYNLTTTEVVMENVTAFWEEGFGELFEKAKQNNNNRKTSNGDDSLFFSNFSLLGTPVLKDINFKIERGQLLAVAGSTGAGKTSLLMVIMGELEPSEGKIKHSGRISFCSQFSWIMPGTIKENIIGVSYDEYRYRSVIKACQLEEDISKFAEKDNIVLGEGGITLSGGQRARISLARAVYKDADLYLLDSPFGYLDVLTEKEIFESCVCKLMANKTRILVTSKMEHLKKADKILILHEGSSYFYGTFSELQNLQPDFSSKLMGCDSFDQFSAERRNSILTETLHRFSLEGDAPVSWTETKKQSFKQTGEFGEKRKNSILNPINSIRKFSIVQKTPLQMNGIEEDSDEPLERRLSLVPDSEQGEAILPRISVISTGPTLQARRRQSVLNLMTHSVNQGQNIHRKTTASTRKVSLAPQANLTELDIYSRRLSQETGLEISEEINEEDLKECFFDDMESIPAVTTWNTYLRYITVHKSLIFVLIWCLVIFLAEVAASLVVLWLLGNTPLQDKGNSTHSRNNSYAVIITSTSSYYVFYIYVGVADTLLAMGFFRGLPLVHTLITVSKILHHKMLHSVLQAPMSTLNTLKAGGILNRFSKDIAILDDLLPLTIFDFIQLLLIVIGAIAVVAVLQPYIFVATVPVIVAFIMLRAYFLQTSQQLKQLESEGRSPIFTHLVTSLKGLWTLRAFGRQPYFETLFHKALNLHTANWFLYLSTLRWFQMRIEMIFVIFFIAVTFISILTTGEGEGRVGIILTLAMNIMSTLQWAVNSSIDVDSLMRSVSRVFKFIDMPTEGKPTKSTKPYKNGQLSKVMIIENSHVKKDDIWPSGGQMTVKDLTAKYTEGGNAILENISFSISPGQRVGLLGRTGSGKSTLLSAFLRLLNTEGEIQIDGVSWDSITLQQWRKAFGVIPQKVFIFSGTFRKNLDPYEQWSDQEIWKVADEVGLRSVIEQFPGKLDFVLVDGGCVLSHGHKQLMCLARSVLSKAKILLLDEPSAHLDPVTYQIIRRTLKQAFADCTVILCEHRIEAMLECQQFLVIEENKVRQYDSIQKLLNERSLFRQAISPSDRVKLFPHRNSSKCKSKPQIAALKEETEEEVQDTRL

As to `Cc1nn(-c2ccccc2)c2nc(C(=O)O)cc(-c3ccc(N4CCN(CCC(F)(F)F)CC4)cc3)c12` [compound 82, 3-methyl-1-phenyl-4-{4-[4-(3,3,3-trifluoropropyl)piperazin-1-yl]phenyl}-1H-pyrazolo[3,4-b]pyridine-6-carboxylic acid], the results for the “% Activation” value in assay [1] and in assay [2] (setting [3]) were 335.65% and 135.95%, respectively. Besides, the concentration giving a half-maximal response (EC50) (in general, the concentration giving half of the maximal effect) in assay [1] was 0.971 µM; in assay [2] (setting [4]), 1.01 µM.

With `CC(C)(C)OC(=O)N1CCC(Oc2nn(-c3ccccc3)c3nc(C(=O)O)cc(-c4ccc(N5CCC(C#N)CC5)nc4)c23)CC1` [compound 553, 3-{[1-(tert-butoxycarbonyl)piperidin-4-yl]oxy}-4-[6-(4-cyanopiperidin-1-yl)pyridin-3-yl]-1-phenyl-1H-pyrazolo[3,4-b]pyridine-6-carboxylic acid], in assay [1], the “% Activation” value came to 419.05% and the EC50 worked out at 0.119 µM. Besides, in assay [2] (setting [5]), the “% Activation” value amounted to 189.7% and the 50% effective concentration (EC50) was determined as 0.37 µM.

For the compound `O=C(O)c1cc(N2CCC(N3CCOCC3)CC2)c2c(C3CCC3)nn(-c3cccc(F)c3)c2n1` [compound 825, 3-cyclobutyl-1-(3-fluorophenyl)-4-[4-(morpholin-4-yl)piperidin-1-yl]-1H-pyrazolo[3,4-b]pyridine-6-carboxylic acid], in assay [1], the “% Activation” value came out at 455.85% and the EC50 is 0.144 µM. For the same compound, in assay [2] (setting [5]), the “% Activation” value is given as 289% and the concentration for a half-maximal effect (EC50) was 0.207 µM.

On to `Cc1cccc(-n2nc(C(C)C)c3c(N4CCCCC4)cc(C(=O)O)nc32)c1` [compound 162, 1-(3-methylphenyl)-4-(piperidin-1-yl)-3-(propan-2-yl)-1H-pyrazolo[3,4-b]pyridine-6-carboxylic acid], for which the results for the “% Activation” value in assay [1] and in assay [2] (setting [3]) were 399.73% and 147.97%, respectively. The concentration for a half-maximal effect (EC50) in assay [1] worked out at 0.808 µM; in assay [2] (setting [4]), 0.992 µM.

Regarding `COCCC1(COc2cc(C(=O)O)nc3c2c(C2CCC2)nn3-c2ccccc2)CC1` [compound 485, 3-cyclobutyl-4-{[1-(2-methoxyethyl)cyclopropyl]methoxyl}-1-phenyl-1H-pyrazolo[3,4-b]pyridine-6-carboxylic acid], in assay [1], the “% Activation” value is recorded as 242.05% and the 50% effective concentration (EC50) came out at 0.335 µM. Also, in assay [2] (setting [5]), the “% Activation” value was 107.5% and the EC50 is 1.07 µM.

For `CN1CCC([C@@H](F)COc2cc(C(=O)O)nc3c2c(C2CCC2)nn3-c2ccccc2)CC1` [compound 482, 3-cyclobutyl-4-[(2R)-2-fluoro-2-(1-methylpiperidin-4-yl)ethoxy]-1-phenyl-1H-pyrazolo[3,4-b]pyridine-6-carboxylic acid], in assay [1], the “% Activation” value was found to be 284.7% and the EC50 came out at 0.709 µM. For the same compound, in assay [2] (setting [5]), the “% Activation” value stood at 144.75% and the EC50 amounted to 1.64 µM.

`CC(C)c1nn(-c2ccc(F)cc2)c2nc(C(=O)O)cc(N3CCC(O)(CN(C)C(C)C)CC3)c12` [compound 798, 1-(4-fluorophenyl)-4-(4-hydroxy-4-{[methyl(propan-2-yl)amino]methyl}piperidin-1-yl)-3-(propan-2-yl)-1H-pyrazolo[3,4-b]pyridine-6-carboxylic acid]: the “% Activation” value in assay [1] is given as 186.5%; in assay [2] (setting [5]), 58.3%. The EC50 is 0.864 µM in assay [1] and 1.67 µM in assay [2] (setting [5]).

Regarding `CC1(COc2cc(C(=O)O)nc3c2c(C2CCC2)nn3-c2ccccc2)CC(F)(F)C1` [compound 476, 3-cyclobutyl-4-[(3,3-difluoro-1-methylcyclobutyl)methoxy]-1-phenyl-1H-pyrazolo[3,4-b]pyridine-6-carboxylic acid], in assay [1], the “% Activation” value came to 297.8% and the EC50 turned out to be 0.386 µM. In assay [2] (setting [5]), the “% Activation” value is 121.45% and the EC50 worked out at 0.513 µM.

Regarding `O=C(O)c1cc(N2CCC(N3CCOCC3)CC2)c2c(C3CCC3)nn(-c3ccnc(OC(F)F)c3)c2n1` [compound 889, 3-cyclobutyl-1-[2-(difluoromethoxy)pyridin-4-yl]-4-[4-(morpholin-4-yl)piperidin-1-yl]-1H-pyrazolo[3,4-b]pyridine-6-carboxylic acid], in assay [1], the “% Activation” value was 449.8% and the concentration for a half-maximal effect (EC50) was 0.241 µM. In assay [2] (setting [5]), the “% Activation” value was 229.2% and the half-maximal effective concentration (EC50) stood at 0.404 µM.

Take `CN(C[C@H]1CCN(c2cc(C(=O)O)nc3c2c(C2CCC2)nn3-c2ccccc2)C1)C(=O)OC(C)(C)C` [compound 675, 4-[(3S)-3-{[(tert-butoxycarbonyl)(methyl)amino]methyl}pyrrolidin-1-yl]-3-cyclobutyl-1-phenyl-1H-pyrazolo[3,4-b]pyridine-6-carboxylic acid]: in assay [1], the “% Activation” value was 303.65% and the EC50 was determined as 1.05 µM. Also, in assay [2] (setting [5]), the “% Activation” value was found to be 118.8% and the EC50 worked out at 0.659 µM.

Take `CC(C)(C)c1nn(C2CCCCC2)c2nc(C(=O)O)cc(-c3cnc(N4CCOCC4)nc3)c12` [compound 149, 3-tert-butyl-1-cyclohexyl-4-[2-(morpholin-4-yl)pyrimidin-5-yl]-1H-pyrazolo[3,4-b]pyridine-6-carboxylic acid]: the figures for the “% Activation” value in assay [1] and in assay [2] (setting [3]) were 296% and 112.95%, respectively. Besides, the half-maximal effective concentration (EC50) stood at 0.449 µM in assay [1] and 0.653 µM in assay [2] (setting [4]).

`O=C(O)c1cc(OCCN2CCCC2)c2c(C3CCC3)nn(-c3ccccc3)c2n1` [compound 628, 3-cyclobutyl-1-phenyl-4-[2-(pyrrolidin-1-yl)ethoxy]-1H-pyrazolo[3,4-b]pyridine-6-carboxylic acid]: in assay [1], the “% Activation” value worked out at 217.7% and the concentration for a half-maximal effect (EC50) was 3.33 µM. For the same compound, in assay [2] (setting [5]), the “% Activation” value is listed as 67.69% and the 50% effective concentration (EC50) worked out at 3.18 µM.

In the case of `Cc1cccc(-n2nc(C(C)C)c3c(N4CCC5C(CCN5CC#N)C4)cc(C(=O)O)nc32)c1` (stereo not shown) [compound 256, 4-[1-(cyanomethyl)octahydro-5H-pyrrolo[3,2-c]pyridin-5-yl]-1-(3-methylphenyl)-3-(propan-2-yl)-1H-pyrazolo[3,4-b]pyridine-6-carboxylic acid], the “% Activation” value in assay [1] came to 362.25%; in assay [2] (setting [3]) it was 180%. The 50% effective concentration (EC50) was 2.05 µM in assay [1] and 3.34 µM in assay [2] (setting [4]).

Regarding `O=C(O)c1cc(N2CCC(CN3CCN4C[C@@H](F)C[C@H]4C3)CC2)c2c(C3CCC3)nn(-c3ccccc3)c2n1` [compound 838, 3-cyclobutyl-4-(4-{[(7S,8aS)-7-fluorohexahydropyrrolo[1,2-a]pyrazin-2(1H)-yl]methyl]piperidin-1-yl)-1-phenyl-1H-pyrazolo[3,4-b]pyridine-6-carboxylic acid], the “% Activation” value in assay [1] stood at 411.8%; in assay [2] (setting [5]), 240.3%. Moreover, the concentration for a half-maximal effect (EC50) came out at 0.115 µM in assay [1] and 0.269 µM in assay [2] (setting [5]).

Consider `COCCN(C)c1ccc(-c2cc(C(=O)O)nc3c2c(C(C)C)nn3-c2cccc(N3CCCC3)c2)cc1` [compound 238, 4-{4-[(2-methoxyethyl)(methyl)amino]phenyl}-3-(propan-2-yl)-1-[3-(pyrrolidin-1-yl)phenyl]-1H-pyrazolo[3,4-b]pyridine-6-carboxylic acid], for which the results for the “% Activation” value in assay [1] and in assay [2] (setting [3]) were 613.4% and 393.7%, respectively. In addition, the values for the EC50 in assay [1] and in assay [2] (setting [4]) were 0.54 µM and 0.827 µM, respectively.

Regarding `CC(C)c1nn(C2CCCCC2)c2nc(C(=O)O)cc(-c3ccn(C)c3)c12` [compound 351, 1-cyclohexyl-4-(1-methyl-1H-pyrrol-3-yl)-3-(propan-2-yl)-1H-pyrazolo[3,4-b]pyridine-6-carboxylic acid], the entries for the “% Activation” value in assay [1] and in assay [2] (setting [3]) were 256.6% and 84.055%, respectively. Besides, the concentration for a half-maximal effect (EC50) in assay [1] was found to be 1.53 µM; in assay [2] (setting [4]) it was 1.61 µM.

For `Cc1nn(-c2ccccc2)c2nc(C(=O)O)cc(N3CC4(CCCOC4)C3)c12` [compound 308, 3-methyl-4-(6-oxa-2-azaspiro[3.5]nonan-2-yl)-1-phenyl-1H-pyrazolo[3,4-b]pyridine-6-carboxylic acid], the results for the “% Activation” value in assay [1] and in assay [2] (setting [3]) were 221.85% and 59.78%, respectively. Further, the EC50 in assay [1] and in assay [2] (setting [4]) was 2.51 µM throughout.

As to `CC(C)c1nn(-c2cc(F)cc(F)c2)c2nc(C(=O)O)cc(-c3cnc(N(C)C4CCOCC4)nc3)c12` [compound 317, 1-(3,5-difluorophenyl)-4-{2-[methyl(oxan-4-yl)amino]pyrimidin-5-yl}-3-(propan-2-yl)-1H-pyrazolo[3,4-b]pyridine-6-carboxylic acid], the “% Activation” value in assay [1] worked out at 433.4%; in assay [2] (setting [3]) it was 216.25%. In addition, the concentration for a half-maximal effect (EC50) in assay [1] came out at 0.972 µM; in assay [2] (setting [4]), 0.695 µM.

As for `CC(C)c1nn(-c2cccc(N3CCCC3)c2)c2nc(C(=O)O)cc(-c3ccc(N4CCC(C#N)CC4)cc3)c12` [compound 221, 4-[4-(4-cyanopiperidin-1-yl)phenyl]-3-(propan-2-yl)-1-[3-(pyrrolidin-1-yl)phenyl]-1H-pyrazolo[3,4-b]pyridine-6-carboxylic acid], the “% Activation” value in assay [1] was 645.97%; in assay [2] (setting [3]) it was 429%. The EC50 in assay [1] is 0.283 µM; in assay [2] (setting [4]), 0.315 µM.

These data come from US9796711B2, “Substituted pyrazolo[3,4-b]pyridin-6-carboxylic acids and method of use” (AbbVie S.àr.l., priority 2015, dated 2017).
